Results taken from PMC10819765, “The biochemically defined super relaxed state of myosin—A paradox” (The Journal of Biological Chemistry, 2023).

Molecular target: T1, porcine cardiac ventricle myosin (pc-HMM; beta-cardiac myosin heavy chain) (Sus scrofa, UniProt P79293)
T1 construct: gene MYH7; chymotryptic heavy meromyosin (pc-HMM); also S1 (pc-S1); with myosin light chains (RLC, essential light chain)
Assay: stopped-flow FRET (Trp to mant) displacement and multiple-turnover assay; kcat […] s^-1
Type: biochemical

T1 sequence (P79293 whole entry): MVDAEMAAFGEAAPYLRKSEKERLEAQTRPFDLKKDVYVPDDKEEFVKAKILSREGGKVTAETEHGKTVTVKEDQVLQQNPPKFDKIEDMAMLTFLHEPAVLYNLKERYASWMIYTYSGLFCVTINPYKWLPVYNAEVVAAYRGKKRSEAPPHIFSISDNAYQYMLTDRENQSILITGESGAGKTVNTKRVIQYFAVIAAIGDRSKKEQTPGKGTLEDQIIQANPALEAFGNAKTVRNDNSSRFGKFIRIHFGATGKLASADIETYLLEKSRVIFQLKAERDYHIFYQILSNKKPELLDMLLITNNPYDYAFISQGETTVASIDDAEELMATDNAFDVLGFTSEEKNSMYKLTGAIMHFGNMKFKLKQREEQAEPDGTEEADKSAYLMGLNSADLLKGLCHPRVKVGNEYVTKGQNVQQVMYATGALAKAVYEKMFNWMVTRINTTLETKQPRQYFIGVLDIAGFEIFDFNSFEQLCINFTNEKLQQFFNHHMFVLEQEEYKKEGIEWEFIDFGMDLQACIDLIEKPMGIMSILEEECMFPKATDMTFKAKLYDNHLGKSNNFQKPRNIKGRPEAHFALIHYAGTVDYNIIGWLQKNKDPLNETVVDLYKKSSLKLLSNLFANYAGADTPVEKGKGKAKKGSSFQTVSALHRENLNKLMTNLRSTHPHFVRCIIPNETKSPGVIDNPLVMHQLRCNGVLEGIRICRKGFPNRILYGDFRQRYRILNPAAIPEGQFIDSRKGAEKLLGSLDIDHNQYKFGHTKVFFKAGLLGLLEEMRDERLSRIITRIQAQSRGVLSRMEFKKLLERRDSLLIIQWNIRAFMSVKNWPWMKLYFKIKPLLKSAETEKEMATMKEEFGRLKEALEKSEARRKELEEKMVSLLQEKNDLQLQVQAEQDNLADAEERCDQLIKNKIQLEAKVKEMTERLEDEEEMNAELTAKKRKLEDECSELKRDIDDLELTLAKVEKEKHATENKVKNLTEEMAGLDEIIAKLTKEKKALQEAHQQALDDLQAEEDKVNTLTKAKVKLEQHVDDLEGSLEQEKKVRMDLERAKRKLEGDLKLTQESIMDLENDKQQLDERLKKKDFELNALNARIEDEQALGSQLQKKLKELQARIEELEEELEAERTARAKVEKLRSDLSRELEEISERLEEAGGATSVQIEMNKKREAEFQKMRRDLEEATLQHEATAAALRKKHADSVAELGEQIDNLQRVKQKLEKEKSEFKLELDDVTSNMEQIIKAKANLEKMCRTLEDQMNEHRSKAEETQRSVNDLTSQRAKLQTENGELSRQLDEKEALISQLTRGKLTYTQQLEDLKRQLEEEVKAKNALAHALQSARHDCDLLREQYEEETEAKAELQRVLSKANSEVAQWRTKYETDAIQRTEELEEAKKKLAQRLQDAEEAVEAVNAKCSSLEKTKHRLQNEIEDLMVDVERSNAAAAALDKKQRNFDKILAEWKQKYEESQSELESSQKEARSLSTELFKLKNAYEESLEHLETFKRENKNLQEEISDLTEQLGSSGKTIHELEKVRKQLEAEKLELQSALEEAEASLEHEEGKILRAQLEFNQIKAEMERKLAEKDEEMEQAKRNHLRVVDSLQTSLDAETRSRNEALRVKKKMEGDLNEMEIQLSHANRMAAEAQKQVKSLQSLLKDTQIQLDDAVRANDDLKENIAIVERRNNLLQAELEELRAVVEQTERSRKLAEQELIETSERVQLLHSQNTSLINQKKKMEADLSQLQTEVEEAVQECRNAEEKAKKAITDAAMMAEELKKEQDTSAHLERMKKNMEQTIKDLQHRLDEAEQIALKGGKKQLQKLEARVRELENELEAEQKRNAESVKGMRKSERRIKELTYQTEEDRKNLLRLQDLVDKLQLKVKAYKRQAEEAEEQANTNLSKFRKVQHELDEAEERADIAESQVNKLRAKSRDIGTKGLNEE

kcat (s^-1) / Mean: 0.0282 s⁻¹
SMILES: CNc1ccccc1C(=O)O[C@H]1C[C@H](n2cnc3c(N)ncnc32)O[C@@H]1COP(=O)(O)OP(=O)(O)OP(=O)(O)O [mant.dATP]
